# Experimental data published in PubChem BioAssay AID1963829 (Molecular Pharmacology Branch, DTP, NCI, 2024).
# pIC50: −log10 of the molar value.
# Tested on: 935938-334-R-J1-PDC complex spheroid viability
# Experiment: Anticancer human tumor 935938-334-R-J1-PDC patient-derived small intestine adenocarcinoma cell line growth inhibition [POLQ]
# Conditions: for pIC50: curve of first compound; for viability, T/C: stronger effect = lower value
# Summary of the method: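 Complex spheroid viability model combining PDC tumour cells with endothelial (HUVEC) and MSC stromal cells. Novobiocin, ART-558 or RP6685 were tested singly and in combination with standard and investigational anticancer drugs. Each was titrated in half-log steps from near clinical Cmax, or from 10 microM where Cmax was unknown.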
# [1] = second compound 0.0316 µM, first compound 0.0316 µM
# [2] = second compound 0.0316 µM, first compound 0.1 µM
# [3] = second compound 0.0316 µM, first compound 0.316 µM
# [4] = second compound 0.0316 µM, first compound 1 µM
# [5] = second compound 0.0316 µM, first compound 3.16 µM
# [6] = second compound 0.0316 µM, first compound 10 µM
# [7] = second compound 0.1 µM, first compound 0.0316 µM
# [8] = second compound 0.1 µM, first compound 0.1 µM
# [9] = second compound 0.1 µM, first compound 0.316 µM
# [10] = second compound 0.1 µM, first compound 1 µM
# [11] = second compound 0.1 µM, first compound 3.16 µM
# [12] = second compound 0.1 µM, first compound 10 µM
# [13] = second compound 0.316 µM, first compound 0.0316 µM
# [14] = second compound 0.316 µM, first compound 0.1 µM
# [15] = second compound 0.316 µM, first compound 0.316 µM
# [16] = second compound 0.316 µM, first compound 1 µM
# [17] = second compound 0.316 µM, first compound 3.16 µM
# [18] = second compound 0.316 µM, first compound 10 µM
# [19] = second compound 1 µM, first compound 0.0316 µM
# [20] = second compound 1 µM, first compound 0.1 µM
# [21] = second compound 1 µM, first compound 0.316 µM
# [22] = second compound 1 µM, first compound 1 µM
# [23] = second compound 1 µM, first compound 3.16 µM
# [24] = second compound 1 µM, first compound 10 µM
# [25] = second compound 3.16 µM, first compound 0.0316 µM
# [26] = second compound 3.16 µM, first compound 0.1 µM
# [27] = second compound 3.16 µM, first compound 0.316 µM
# [28] = second compound 3.16 µM, first compound 1 µM
# [29] = second compound 3.16 µM, first compound 3.16 µM
# [30] = second compound 3.16 µM, first compound 10 µM
# [31] = second compound 10 µM, first compound 0.0316 µM
# [32] = second compound 10 µM, first compound 0.1 µM
# [33] = second compound 10 µM, first compound 0.316 µM
# [34] = second compound 10 µM, first compound 1 µM
# [35] = second compound 10 µM, first compound 3.16 µM
# [36] = second compound 10 µM, first compound 10 µM
# [37] = second compound 0.0316 µM, first compound 0.00316 µM
# [38] = second compound 0.0316 µM, first compound 0.01 µM
# [39] = second compound 0.1 µM, first compound 0.00316 µM
# [40] = second compound 0.1 µM, first compound 0.01 µM
# [41] = second compound 0.316 µM, first compound 0.00316 µM
# [42] = second compound 0.316 µM, first compound 0.01 µM
# [43] = second compound 1 µM, first compound 0.00316 µM
# [44] = second compound 1 µM, first compound 0.01 µM
# [45] = second compound 3.16 µM, first compound 0.00316 µM
# [46] = second compound 3.16 µM, first compound 0.01 µM
# [47] = second compound 10 µM, first compound 0.00316 µM
# [48] = second compound 10 µM, first compound 0.01 µM
# 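Further: spheroids exposed to drugs for seven days before viability read.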
# 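Wherever viability, T/C is given: 100% = DMSO vehicle control wells.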
compound,measurement,setting,value
C=CC(=O)N1CCN(c2nc(=O)n(-c3c(C)ccnc3C(C)C)c3nc(-c4c(O)cccc4F)c(F)cc23)C(C)C1 (stereo not drawn) + COC1C(OC(N)=O)C(O)C(Oc2ccc3c(O)c(NC(=O)c4ccc(O)c(CC=C(C)C)c4)c(=O)oc3c2C)OC1(C)C,pIC50,second compound 0.0316 µM,< 5.00
same,pIC50,second compound 0.1 µM,< 5.00
same,pIC50,second compound 0.316 µM,< 5.00
same,pIC50,second compound 1 µM,< 5.00
same,pIC50,second compound 3.16 µM,< 5.00
same,pIC50,second compound 10 µM,< 5.00
same,"viability, T/C",[1],107%
same,"viability, T/C",[2],88.4%
same,"viability, T/C",[3],107%
same,"viability, T/C",[4],82.9%
same,"viability, T/C",[5],131%
same,"viability, T/C",[6],111%
same,"viability, T/C",[7],85.3%
same,"viability, T/C",[8],110%
same,"viability, T/C",[9],90.8%
same,"viability, T/C",[10],99.3%
same,"viability, T/C",[11],104%
same,"viability, T/C",[12],126%
same,"viability, T/C",[13],129%
same,"viability, T/C",[14],87.2%
same,"viability, T/C",[15],103%
same,"viability, T/C",[16],80.7%
same,"viability, T/C",[17],85.5%
same,"viability, T/C",[18],115%
same,"viability, T/C",[19],101%
same,"viability, T/C",[20],86.4%
same,"viability, T/C",[21],101%
same,"viability, T/C",[22],107%
same,"viability, T/C",[23],102%
same,"viability, T/C",[24],113%
same,"viability, T/C",[25],117%
same,"viability, T/C",[26],99.7%
same,"viability, T/C",[27],93.4%
same,"viability, T/C",[28],96.9%
same,"viability, T/C",[29],102%
same,"viability, T/C",[30],111%
same,"viability, T/C",[31],102%
same,"viability, T/C",[32],81.3%
same,"viability, T/C",[33],106%
same,"viability, T/C",[34],94.7%
same,"viability, T/C",[35],103%
same,"viability, T/C",[36],118%
C=CC(=O)N1CCN(c2nc(=O)n(-c3c(C)ccnc3C(C)C)c3nc(-c4c(O)cccc4F)c(F)cc23)C(C)C1 (stereo not drawn) + Nc1ccc(C#CCN(C(=O)Cc2ncc(C(F)(F)F)cc2C(F)(F)F)c2ccc(F)cc2)nn1,pIC50,second compound 0.0316 µM,< 5.00
same,pIC50,second compound 0.1 µM,< 5.00
same,pIC50,second compound 0.316 µM,< 5.00
same,pIC50,second compound 1 µM,< 5.00
same,pIC50,second compound 3.16 µM,< 5.00
same,pIC50,second compound 10 µM,< 5.00
same,"viability, T/C",[1],99.1%
same,"viability, T/C",[2],111%
same,"viability, T/C",[3],87.1%
same,"viability, T/C",[4],128%
same,"viability, T/C",[5],125%
same,"viability, T/C",[6],112%
same,"viability, T/C",[7],90.7%
same,"viability, T/C",[8],99.5%
same,"viability, T/C",[9],91.2%
same,"viability, T/C",[10],138%
same,"viability, T/C",[11],122%
same,"viability, T/C",[12],107%
same,"viability, T/C",[13],106%
same,"viability, T/C",[14],106%
same,"viability, T/C",[15],87.3%
same,"viability, T/C",[16],94.8%
same,"viability, T/C",[17],128%
same,"viability, T/C",[18],87.4%
same,"viability, T/C",[19],91.4%
same,"viability, T/C",[20],96.9%
same,"viability, T/C",[21],98.4%
same,"viability, T/C",[22],134%
same,"viability, T/C",[23],115%
same,"viability, T/C",[24],138%
same,"viability, T/C",[25],85.1%
same,"viability, T/C",[26],89.9%
same,"viability, T/C",[27],114%
same,"viability, T/C",[28],95.9%
same,"viability, T/C",[29],183%
same,"viability, T/C",[30],113%
same,"viability, T/C",[31],88.2%
same,"viability, T/C",[32],95.8%
same,"viability, T/C",[33],116%
same,"viability, T/C",[34],89.3%
same,"viability, T/C",[35],119%
same,"viability, T/C",[36],138%
C=CCn1c(=O)c2cnc(Nc3ccc(N4CCN(C)CC4)cc3)nc2n1-c1cccc(C(C)(C)O)n1 + Nc1ccc(C#CCN(C(=O)Cc2ncc(C(F)(F)F)cc2C(F)(F)F)c2ccc(F)cc2)nn1,pIC50,second compound 0.0316 µM,6.27
same,pIC50,second compound 0.1 µM,6.18
same,pIC50,second compound 0.316 µM,6.23
same,pIC50,second compound 1 µM,6.56
same,pIC50,second compound 3.16 µM,6.22
same,pIC50,second compound 10 µM,6.32
same,"viability, T/C",[37],90.4%
same,"viability, T/C",[38],93.5%
same,"viability, T/C",[1],73.8%
same,"viability, T/C",[2],79.8%
same,"viability, T/C",[3],77.2%
same,"viability, T/C",[4],19.1%
same,"viability, T/C",[39],76.5%
same,"viability, T/C",[40],81.3%
same,"viability, T/C",[7],92.6%
same,"viability, T/C",[8],96.6%
same,"viability, T/C",[9],89.5%
same,"viability, T/C",[10],29.1%
same,"viability, T/C",[41],85.8%
same,"viability, T/C",[42],70.4%
same,"viability, T/C",[13],72.1%
same,"viability, T/C",[14],99.6%
same,"viability, T/C",[15],77.1%
same,"viability, T/C",[16],26.2%
same,"viability, T/C",[43],80%
same,"viability, T/C",[44],105%
same,"viability, T/C",[19],82.3%
same,"viability, T/C",[20],107%
same,"viability, T/C",[21],43.6%
same,"viability, T/C",[22],25.4%
same,"viability, T/C",[45],95.9%
same,"viability, T/C",[46],79.3%
same,"viability, T/C",[25],61.8%
same,"viability, T/C",[26],85.4%
same,"viability, T/C",[27],88.7%
same,"viability, T/C",[28],24.3%
same,"viability, T/C",[47],96.7%
same,"viability, T/C",[48],82.6%
same,"viability, T/C",[31],118%
same,"viability, T/C",[32],81.3%
same,"viability, T/C",[33],65.4%
same,"viability, T/C",[34],25.2%
CCc1c2c(nc3ccc(O)cc13)-c1cc3c(c(=O)n1C2)COC(=O)[C@]3(O)CC + Cc1cccc(N(C)C(=O)C2C(O)CCN2c2nc(C)cc(C(F)(F)F)c2C#N)c1,pIC50,second compound 0.0316 µM,7.80
same,pIC50,second compound 0.1 µM,7.70
same,pIC50,second compound 0.316 µM,7.61
same,pIC50,second compound 1 µM,7.64
same,pIC50,second compound 3.16 µM,7.61
same,pIC50,second compound 10 µM,7.58
same,"viability, T/C",[37],96.3%
same,"viability, T/C",[38],55.6%
same,"viability, T/C",[1],41.4%
same,"viability, T/C",[2],33.8%
same,"viability, T/C",[3],36.6%
same,"viability, T/C",[4],29.1%
same,"viability, T/C",[39],98.1%
same,"viability, T/C",[40],66.6%
same,"viability, T/C",[7],38.9%
same,"viability, T/C",[8],32.5%
same,"viability, T/C",[9],33.4%
same,"viability, T/C",[10],32.4%
same,"viability, T/C",[41],109%
same,"viability, T/C",[42],83%
same,"viability, T/C",[13],40.7%
same,"viability, T/C",[14],34%
same,"viability, T/C",[15],38.3%
same,"viability, T/C",[16],35.4%
same,"viability, T/C",[43],82.9%
same,"viability, T/C",[44],63.2%
same,"viability, T/C",[19],43.5%
same,"viability, T/C",[20],36.6%
same,"viability, T/C",[21],33.3%
same,"viability, T/C",[22],29.2%
same,"viability, T/C",[45],87.6%
same,"viability, T/C",[46],85.3%
same,"viability, T/C",[25],39.4%
same,"viability, T/C",[26],37.7%
same,"viability, T/C",[27],39.3%
same,"viability, T/C",[28],31.7%
same,"viability, T/C",[47],115%
same,"viability, T/C",[48],66.9%
same,"viability, T/C",[31],43.2%
same,"viability, T/C",[32],45.9%
same,"viability, T/C",[33],35%
same,"viability, T/C",[34],31.5%
